Data reported in publication PMC9299503, “Catalytic Control of Spiroketal Formation in Rubromycin Polyketide Biosynthesis” (Angewandte Chemie (International Ed. in English), 2021).

Legend:
GrhO5 [1] = target: T1, GrhO5 (Streptomyces sp. JP95, UniProt Q8KSX7); assay: X-ray crystal structure, crystals soaked with […]; assay type: binding; conditions: FAD in OUT, reducible state; bound ligand may be 3 or its reduced form 5 (dihydrocollinone)
T1 construct: crystallised; domains I-III, residues 1-537 described; construct details only in supplement
T1 sequence (Q8KSX7 1-537): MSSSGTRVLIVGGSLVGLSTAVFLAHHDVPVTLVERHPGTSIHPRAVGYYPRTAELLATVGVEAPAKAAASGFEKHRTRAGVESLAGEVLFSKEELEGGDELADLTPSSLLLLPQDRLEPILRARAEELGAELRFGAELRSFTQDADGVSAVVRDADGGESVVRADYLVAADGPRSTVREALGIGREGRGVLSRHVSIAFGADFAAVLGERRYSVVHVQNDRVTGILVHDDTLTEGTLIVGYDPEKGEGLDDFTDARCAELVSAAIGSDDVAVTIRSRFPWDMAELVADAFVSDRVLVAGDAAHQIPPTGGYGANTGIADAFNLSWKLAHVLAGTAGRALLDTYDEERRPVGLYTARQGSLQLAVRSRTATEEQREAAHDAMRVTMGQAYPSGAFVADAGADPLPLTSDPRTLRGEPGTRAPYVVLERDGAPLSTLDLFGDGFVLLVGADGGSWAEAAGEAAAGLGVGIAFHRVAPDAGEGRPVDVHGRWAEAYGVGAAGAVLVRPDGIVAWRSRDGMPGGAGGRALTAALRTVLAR

GrhO5 [2] = target: T1, GrhO5; assay: X-ray crystal structure, […] Å; assay type: binding; conditions: ligand-free acceptor state, FAD in OUT

COc1cc(=O)c2c(=O)c3c(c(=O)c=2c1=O)=C(O)[C@@]1(O)c2c(cc4cc(C)oc(=O)c4c2O)CC[C@@]1(O)C=3O [compound 3, collinone]
X-ray crystal structure, crystals soaked with 3 (GrhO5 [1]): revealed clear electron density in the open, solvent‐exposed substrate‐binding site

Cc1cc2nc3c(=O)[nH]c(=O)nc-3n(C[C@H](O)[C@H](O)[C@H](O)COP(=O)(O)OP(=O)(O)OC[C@H]3O[C@@H](n4cnc5c(N)ncnc54)[C@H](O)[C@@H]3O)c2cc1C [FAD]
X-ray crystal structure, 1.75 Å (GrhO5 [2]): domains I and II are essential for FAD‐ and substrate binding, respectively
